Legend:
[1] = biological target: T1, ACO1 (aconitase activity of rat heart homogenate supernatant); experiment: aconitase activity, absorbance of aconitate at […] nm; assay type: biochemical; details: 10 min preincubation, citrate 4 μM, 100 μg protein, Tris-HCl 20 mM pH 7.4, room temperature, no oxidant
T1 construct: crude rat heart homogenate, 12,000 x g supernatant

[2] = biological target: T2, ACO1 (recombinant human ACO1 protein) (Homo sapiens, UniProt P21399); experiment: surface plasmon resonance (Biacore X100, CM5 chip); assay type: binding
T2 construct: immobilised on CM5 chip at pH 4.0
T2 sequence (P21399 1-889): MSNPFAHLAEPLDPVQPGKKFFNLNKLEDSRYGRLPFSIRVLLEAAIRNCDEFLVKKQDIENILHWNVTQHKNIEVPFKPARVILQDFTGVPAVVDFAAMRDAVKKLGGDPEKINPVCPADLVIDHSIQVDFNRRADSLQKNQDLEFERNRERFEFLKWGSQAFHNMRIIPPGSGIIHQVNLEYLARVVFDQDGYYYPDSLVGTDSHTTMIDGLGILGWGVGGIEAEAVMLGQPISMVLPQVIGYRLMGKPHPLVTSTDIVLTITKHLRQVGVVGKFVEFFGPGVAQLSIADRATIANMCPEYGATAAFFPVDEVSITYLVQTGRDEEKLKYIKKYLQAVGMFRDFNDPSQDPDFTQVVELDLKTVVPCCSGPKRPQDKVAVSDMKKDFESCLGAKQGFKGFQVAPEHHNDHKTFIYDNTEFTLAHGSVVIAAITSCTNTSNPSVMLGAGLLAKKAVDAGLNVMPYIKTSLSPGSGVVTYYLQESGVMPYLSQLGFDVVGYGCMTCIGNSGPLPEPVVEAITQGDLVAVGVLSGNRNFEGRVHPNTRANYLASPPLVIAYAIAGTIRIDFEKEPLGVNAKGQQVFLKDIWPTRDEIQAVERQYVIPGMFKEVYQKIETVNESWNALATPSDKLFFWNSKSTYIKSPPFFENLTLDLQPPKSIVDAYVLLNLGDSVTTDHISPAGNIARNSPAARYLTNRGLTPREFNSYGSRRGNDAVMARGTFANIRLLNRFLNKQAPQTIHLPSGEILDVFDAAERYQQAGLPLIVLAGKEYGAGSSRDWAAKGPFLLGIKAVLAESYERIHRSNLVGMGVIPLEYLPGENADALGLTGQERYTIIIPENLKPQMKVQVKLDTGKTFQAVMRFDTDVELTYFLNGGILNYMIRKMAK

O=c1cc(-c2ccccc2)oc2cc(O)c(O)c(O)c12 [baicalein, 5,6,7-trihydroxyflavone]
IC50 [1]: 166 µM
Kd [2]: 198 µM
